Read-outs that look alike come from different tables or passages of the source.
How the values were obtained:
[1] = TC50 assay in Huh7 cells, 48 h (CellTiter 96); conditions: human
Method: (§1) Huh7 cells were maintained at 37° C. in a humidified atmosphere at 5% CO2 in DMEM containing 10% FBS. […] The cells were then treated with each compound at concentrations ranging from 500 μM to 0 μM in triplicate in DMEM media containing 2% FBS and 0.5% DMSO and without phenol red. After 48 h of treatment at 37° C., the relative number of living cells in each well was determined by using the CellTiter 96 system (Promega) according to the manufacturer's instructions. The 3-(4,5-dimethylthiazol-2-yl)-5-(3-carboxymethoxyphenyl)-2-(4-sulfophenyl)-2H-tetrazolium (MTS) and phenazine methosulfate (PMS) reagents were added to each well of the 96-well plate and the plate was incubated at 37° C. for approximately 2 h. The absorbance at 490 nm and 650 nm in each well was then determined by using a Flexstation 3 microplate reader ([…]). The absorbance determined at 650 nm was then subtracted from the absorbance determined at 490 nm to correct for light scattering. The corrected absorbance values representing the relative number of live cells in each condition were then plotted as a function of compound concentration, and the data were then fit to the following sigmoidal Emax equation by using Kaleidagraph: y=(Emax*x^Slope)/(TC50^Slope+x^Slope) where y is the relative corrected absorbance value, Emax is the maximum relative inhibition, x is the compound concentration, TC50 is the concentration of the compound at which the total cell population is reduced by 50%, and Slope is the slope of the curve.
(§2) The data in Table 1 were determined for cells exposed to drug for 48 h. The IC50 is the concentration of each compound necessary to inhibit the replication of the HCV luciferase replicon to 50%. “TC50,” refers to toxic concentration necessary to reduce the cell population by 50%. All compounds were purified by HPLC.

BxPC3 = assay: TC50 assay with human cancer cell lines, 96 h: BxPC3; assay type: cell-based
Method: (§6) Huh7 cells were maintained at 37° C. in a humidified atmosphere at 5% CO2 in DMEM containing 10% FBS. […] The cells were then treated with each compound at concentrations ranging from 500 μM to 0 μM in triplicate in DMEM media containing 2% FBS and 0.5% DMSO and without phenol red. After 48 h of treatment at 37° C., the relative number of living cells in each well was determined by using the CellTiter 96 system (Promega) according to the manufacturer's instructions. The 3-(4,5-dimethylthiazol-2-yl)-5-(3-carboxymethoxyphenyl)-2-(4-sulfophenyl)-2H-tetrazolium (MTS) and phenazine methosulfate (PMS) reagents were added to each well of the 96-well plate and the plate was incubated at 37° C. for approximately 2 h. The absorbance at 490 nm and 650 nm in each well was then determined by using a Flexstation 3 microplate reader (Molecular Dynamics). The absorbance determined at 650 nm was then subtracted from the absorbance determined at 490 nm to correct for light scattering. The corrected absorbance values representing the relative number of live cells in each condition were then plotted as a function of compound concentration, and the data were then fit to the following sigmoidal Emax equation by using Kaleidagraph: y=(Emax*x^Slope)/(TC50^Slope+x^Slope) where y is the relative corrected absorbance value, Emax is the maximum relative inhibition, x is the compound concentration, TC50 is the concentration of the compound at which the total cell population is reduced by 50%, and Slope is the slope of the curve.
(§7) Huh7, HEPG2, HEK293, MCF-7 and BxPC3 cell lines were maintained at 37° C. in a humidified atmosphere at 5% CO2 in DMEM containing 10% FBS. […] The cells were then treated with each compound at concentrations ranging from 500 μM to 0 μM in triplicate in DMEM media containing 2% FBS and 0.5% DMSO and without phenol red.

MCF-7 = assay: TC50 assay with human cancer cell lines, 96 h: MCF-7; assay type: cell-based
Method: as §6, §7

HEK293 = assay: TC50 assay with human cancer cell lines, 96 h: HEK293; assay type: cell-based
Method: as §6, §7

RPK9 cells = assay: TC50 assay in gemcitabine resistant (dCK deficient) RPK9 cells, 48 h; conditions: read-out: TC50 (μM) in RPK9 cells at 48 hr
Method: as §1
(§3) PK9 and RPK9 cells were maintained at 37° C. in a humidified atmosphere at 5% CO2 in Roswell Park Memorial Institute (RPMI) media containing 10% FBS. […] The cells were then treated with each compound at concentrations ranging from […] to 0 μM in triplicate in RPMI media containing 2% FBS and 0.5% DMSO and without phenol red. […] The RPK9 cells were derived from the parental PK9 cell line, and are deficient for dCK activity due to the partial deletion of the dCK gene.

HCV luciferase replicon = assay: IC50 assay: inhibition of the HCV luciferase replicon in Huh7 cells; assay type: cell-based; conditions: for IC50: Hepatitis C virus; for Therapeutic Index (TC50/IC50): TC50 in Huh7 / IC50 HCV replicon, 48 h
Method: After 48 h of treatment at 37° C., the media in each well was removed, the cells were gently washed once with phosphate buffered saline (PBS) and subsequently lysed by the addition of Glo Lysis Buffer (Promega). After a 15 min incubation at room temperature to allow for complete cell lysis, Bright-Glo luciferase reagent (Promega) was added to each well and the relative luciferase activity in each well was determined by using a Glowmax 96 microplate luminometer (Promega).
IC50 values determined using the above methods for inhibition of the HCV luciferase replicon in Huh7 cells are set forth in Table 1.
All compounds were purified by HPLC.

Huh7 = assay: TC50 assay with human cancer cell lines, 96 h: Huh7; assay type: cell-based
Method: as §6, §7

PK9 cells [2] = assay: TC50 assay in PK9 cells, 48 h; conditions: Homo sapiens, PK9, 48 h, read-out: TC50 (μM) in PK9 cells at 48 hr
Method: as §1, §3

HEPG2 = assay: TC50 assay with human cancer cell lines, 96 h: HEPG2; assay type: cell-based
Method: as §6, §7

PK9 cells [3] = assay: Cell transport: cytotoxicity in PK9 cells with or without ENT1 inhibitor NBTI; conditions: Homo sapiens, PK9, 48 h
Method: as §1
(§4) To this end, Huh7 cells or PK9 cells were seeded in 96-well plates at a density of 5,000 cells/well or 2,500 cells/well, respectively, and the plates were incubated at 37° C. for 24 h to allow for cell attachment. The media was then removed from the plates and replaced with media containing 2% FBS, 0.5% DMSO and 10 μM NBTI. […] Subsequently, the cells were treated with each compound at final concentrations ranging from 500 μM to 0 μM in triplicate in media containing 2% FBS, 0.5% DMSO and 10 μM NBTI. […] The TC50 values of each compound in the presence or absence of the ENT1 inhibitor were then compared.

Huh7 cells [4] = assay: Cell transport: cytotoxicity in Huh7 cells with or without ENT1 inhibitor NBTI; conditions: Homo sapiens, Huh-7, 48 h
Method: as §1, §4

[5] = Tolerability of single oral dosage in HCV-infected chimpanzees; assay type: in vivo, chimpanzee; conditions: single oral dosage 260 mg
Method: (§5) Via oral gavage, two HCV-infected chimpanzees I (male, 56.49 kg and 11 years old; genotype 1b HCV) and II (male, 61.91 kg and 34 years old; genotype 1a HCV) each received a single dosage of 200 mg of Compound 1 in Formulation I while the HCV-infected chimpanzee III (male, 56.19 kg and 18 years old; genotype 1a HCV) was administered a single dosage of 260 mg of the non-phosphorylated analog of Compound 1 (Table 1) in Formulation I. After 12 hours, the HCV viral titer decreased from 24,100 to 10,200 IU/ml (or 58% drop) in Chimpanzee I, from 38,500 to 27,000 IU/ml (or 30% drop) in Chimpanzee II, and from 154,000 to 142,000 IU/ml (or 8% drop) in Chimpanzee III. […] All animals were fasted overnight prior to dosing and a minimum of 2 hours prior to scheduled blood sample collections. Viral load determinations were performed on plasma samples using the HCV TaqMan assay (COBAS® AmpliPrep/COBAS® TaqMan® HCV Test, Version 2, Test Code 1220) for quantitative analysis. […] There were no adverse effects, illness, nor distress seen with the three chimpanzees during the study requiring veterinarian intervention.

genotype 1a HCV = assay: Oral administration to HCV-infected chimpanzees, viral load (genotype 1a); assay type: in vivo, chimpanzee; conditions: Chimpanzee III
Method: as §5

Huh7 cells [6] = assay: TC50 assay in Huh7 cells, 48 h (CellTiter 96); conditions: read-out: TC50; Huh7 cells, 48 h exposure
Method: as §1, §2

[7] = BXPC-3, 96 h of treatment, read-out: TC50 BxPC3
[8] = MCF7, 96 h of treatment, read-out: TC50 MCF-7
[9] = HEK293, 96 h of treatment, read-out: TC50 HEK293
[10] = Huh-7, Huh7 cells containing HCV luciferase replicon, 48 h exposure, read-out: IC50
[11] = Huh-7, 96 h of treatment, read-out: TC50 Huh7
[12] = read-out: TC50 (μM) in PK9 cells at 48 h Without NBTI
[13] = HepG2, 96 h of treatment, read-out: TC50 HEPG2

`CC(C)OC(=O)[C@H](C)N[P@](=O)(OC[C@H]1O[C@@H](n2ccc(NC(=O)c3ccc4c(c3)OCO4)nc2=O)C(F)(F)C1O)Oc1ccccc1` (stereo in doubt) [Compound 4] showed a CC50 at 48 h [1] of 41.5 ± 5.6 µM, a CC50 (BxPC3; BXPC-3, 96 h, read-out: TC50 BxPC3 (μM)) of 4.05 µM and a CC50 (MCF-7; MCF7, 96 h, read-out: TC50 MCF-7 (μM)) of 1.93 µM. It also gave a CC50 (HEK293; HEK293, 96 h, read-out: TC50 HEK293 (μM)) of 2.7 µM, a CC50 (RPK9 cells) of 20.3 ± 3.9 µM and an IC50 (HCV luciferase replicon; Huh-7, 48 h) of 309 ± 45 nM. For the same molecule, the “Therapeutic Index (TC50/IC50)” value (HCV luciferase replicon) was 134, the CC50 (Huh7; Huh-7, 96 h, read-out: TC50 Huh7 (μM)) was 5.5 µM and the CC50 (PK9 cells [2]) was 16 ± 4.8 µM. It also gave a CC50 (HEPG2; HepG2, 96 h, read-out: TC50 HEPG2 (μM)) of 3.22 µM.
Molecule `Nc1ccn([C@@H]2O[C@H](CO)[C@@H](O)C2(F)F)c(=O)n1` [Gemcitabine, 2′,2′-difluorodeoxycytidine, reference compound] has a CC50 (BxPC3; [7]) of 0.0029 ± 0.003 µM, a CC50 (MCF-7; [8]) of 0.067 ± 0.014 µM and a CC50 (HEK293; [9]) of 0.56 ± 0.13 µM. It also gave a CC50 (RPK9 cells) of over 500 µM, an IC50 (HCV luciferase replicon; [10]) of 58 ± 6 nM and a CC50 (Huh7; [11]) of 3.41 ± 1.36 µM. For the same molecule, the CC50 (PK9 cells [2]) was 0.095 ± 0.035 µM, the CC50 (PK9 cells [3]; [12]) was 0.095 µM and the CC50 (HEPG2; [13]) was 0.311 ± 0.055 µM.
Work on `CCCC(CCC)C(=O)Nc1ccn(C2O[C@H](CO)[C@@H](O)C2(F)F)c(=O)n1` (stereo partly shown) [Non-phosphorylated analog of Compound 1] yielded a CC50 at 48 h ([1]; Huh7 cells) of 383 ± 51 µM, a CC50 (BxPC3; [7]) of 1.02 ± 0.15 µM and a CC50 (MCF-7; [8]) of 9.06 ± 1.95 µM. The CC50 (Huh7 cells [4]; read-out: TC50 (μM) in Huh7 cells at 48 h With NBTI) was 260 µM, the CC50 (Huh7 cells [4]; read-out: TC50 (μM) in Huh7 cells at 48 h Without NBTI) was 383 µM and the CC50 (HEK293; [9]) was 15.1 ± 1.77 µM. The tolerability [5] was “well tolerated”, the CC50 (RPK9 cells) was over 500 µM and the IC50 (HCV luciferase replicon; [10]) was 451 ± 79 nM. The “Therapeutic Index (TC50/IC50)” value (HCV luciferase replicon) was 850, the CC50 (Huh7; [11]) was 3.89 ± 0.68 µM and the “drop of HCV viral titer after 12 hours” value (genotype 1a HCV; single oral dosage 260 mg) was 8%. The “HCV viral titer after 12 hours” value (genotype 1a HCV; single oral dosage 260 mg in Formulation I, titer before 154,000 IU/ml) was 142,000 IU/ml, the CC50 (PK9 cells [2]) was 1.27 ± 0.09 µM and the CC50 (PK9 cells [3]; read-out: TC50 (μM) in PK9 cells at 48 h With NBTI) was 6.6 µM. For the same molecule, the CC50 (PK9 cells [3]; [12]) was 1.27 µM and the CC50 (HEPG2; [13]) was 4.32 ± 0.34 µM.
In the case of `COc1cc(C(=O)Nc2ccn([C@@H]3O[C@H](CO)[C@@H](O)C3(F)F)c(=O)n2)cc(OC)c1OC` [Non-phosphorylated analog of Compound 3, N-(1-((2R,4R,5R)-3,3-difluoro-4-hydroxy-5-(hydroxymethyl)tetrahydrofuran-2-yl)-2-oxo-1,2-dihydropyrimidin-4-yl)-3,4,5-trimethoxybenzamide], the CC50 (Huh7 cells [6]) is reported as 495 ± 97 µM, the CC50 (BxPC3; [7]) is reported as 1.83 µM and the CC50 (MCF-7; [8]) is reported as 0.566 µM. The CC50 (HEK293; [9]) was 1.28 µM, the CC50 (RPK9 cells) was over 500 µM and the IC50 (HCV luciferase replicon; [10]) was 49.3 ± 8.8 nM. The “Therapeutic Index (TC50/IC50)” value (HCV luciferase replicon) was 10040, the CC50 (Huh7; [11]) was 5.05 µM and the CC50 (PK9 cells [2]) was 1.69 ± 0.1 µM. The CC50 (HEPG2; [13]) was 1.67 µM.

From US10059733B2 (NUCORION PHARMACEUTICALS, INC., priority 2014, dated 2018)
